Source: PubChem BioAssay AID276 (DTP/NCI, 2004)
Where “and” joins values, the source holds several entries; their conditions need not be identical. Identical values can stand only once. Toxic doses and inconclusive results are not listed.

Test system: B6C3F1 mice, Lewis lung carcinoma iv, survival T/C
Assay: NCI In Vivo Anticancer Drug Screen. Data for tumor model Lewis Lung Carcinoma (intravenous) in B6C3F1 mice
Settings: endpoint: median survival time, schedule: Q01DX009 (ip), higher = longer survival
Summary of the method: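 Read-out is survival, expressed as the treated-group measurement over the vehicle control-group measurement. Animals bore a transplantable tumor and were given compound.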

[1] = dose: 25.0 mg/kg/injection, vehicle: saline with Tween-80
[2] = dose: 50.0 mg/kg/injection, vehicle: saline with Tween-80
[3] = dose: 100.0 mg/kg/injection, vehicle: saline with Tween-80
[4] = dose: 200.0 mg/kg/injection, vehicle: saline with Tween-80
[5] = dose: 400.0 mg/kg/injection, vehicle: saline with Tween-80
[6] = dose: 6.25 mg/kg/injection, vehicle: saline with Tween-80
[7] = dose: 12.5 mg/kg/injection, vehicle: saline with Tween-80
[8] = dose: 0.5 mg/kg/injection, vehicle: saline
[9] = dose: 25.0 mg/kg/injection, vehicle: saline

## CN(C=O)C(C(=O)Nc1cccc2c(OC(=O)C(N(C)C=O)(N(C)C=O)N(C)C=O)c(N=Nc3ccc(S(=O)(=O)Nc4nccs4)cc3)cc(N=Nc3ccc(S(=O)(=O)Nc4nccs4)cc3)c12)(N(C)C=O)N(C)C=O (tested in a mixture with another compound)
[1]
  T/C: 103 % of control
[2]
  T/C: 98 % of control
[3]
  T/C: 99 % of control and 104 % of control
[4]
  T/C: 94 % of control and 98 % of control
[5]
  T/C: 103 % of control and 110 % of control
dose: 800.0 mg/kg/injection, vehicle: saline with Tween-80
  T/C: 107 % of control

## CCCCCCCCCCCCCCCCCC(=O)Nc1ccn(C2OC(CO)C(O)C2O)c(=O)n1 (stereo not given)
dose: 12.5 mg/kg/injection, vehicle: suspension in saline
  T/C: 103 % of control and 109 % of control
dose: 25.0 mg/kg/injection, vehicle: suspension in saline
  T/C: 119 % of control
dose: 50.0 mg/kg/injection, vehicle: suspension in saline
  T/C: 160 % of control and 164 % of control

## O=C1C=C2C(=CCOC2O)O1 (stereo not given)
dose: 0.25 mg/kg/injection, vehicle: Klucel (hydroxypropylcellulose) (HPC)
  T/C: 99 % of control
dose: 0.5 mg/kg/injection, vehicle: Klucel (hydroxypropylcellulose) (HPC)
  T/C: 104 % of control
dose: 0.75 mg/kg/injection, vehicle: saline
  T/C: 97 % of control
dose: 1.0 mg/kg/injection, vehicle: Klucel (hydroxypropylcellulose) (HPC)
  T/C: 94 % of control
dose: 1.5 mg/kg/injection, vehicle: saline
  T/C: 98 % of control
dose: 2.0 mg/kg/injection, vehicle: Klucel (hydroxypropylcellulose) (HPC)
  T/C: 98 % of control
dose: 3.0 mg/kg/injection, vehicle: saline
  T/C: 98 % of control
dose: 4.0 mg/kg/injection, vehicle: Klucel (hydroxypropylcellulose) (HPC)
  T/C: 94 % of control

## O=C(CCCN1CCC(C(O)c2ccc(F)cc2)CC1)c1ccc(F)cc1 (stereo not given)
dose: 3.12 mg/kg/injection, vehicle: saline with Tween-80
  T/C: 102 % of control
[6]
  T/C: 101 % of control
[7]
  T/C: 105 % of control

## CC(=O)OCC1(C)NC(=O)c2ccccc2O1 (stereo not given)
[7]
  T/C: 114 % of control
[1]
  T/C: 96 % of control
[2]
  T/C: 100 % of control
[3]
  T/C: 104 % of control
[4]
  T/C: 114 % of control
[5]
  T/C: 100 % of control

## Nc1nc(=S)c2[nH]cnc2[nH]1
[8]
  T/C: 104 % of control
dose: 2.0 mg/kg/injection, vehicle: saline
  T/C: 114 % of control

## NC(=S)c1cn(C2OC(CO)C(O)C2O)c2ncnc(N)c12 (stereo not given)
dose: 0.62 mg/kg/injection, vehicle: suspension in saline
  T/C: 100 % of control
dose: 1.25 mg/kg/injection, vehicle: suspension in saline
  T/C: 90 % of control
dose: 2.5 mg/kg/injection, vehicle: suspension in saline
  T/C: 99 % of control
dose: 5.0 mg/kg/injection, vehicle: suspension in saline
  T/C: 94 % of control

## O=C1NC(=O)C2C3C=CC(C12)C1C2C(=O)NC(=O)C2C31 (stereo not given)
[7]
  T/C: 96 % of control and 105 % of control
[1]
  T/C: 95 % of control and 102 % of control
[2]
  T/C: 99 % of control
[3]
  T/C: 96 % of control
[4]
  T/C: 91 % of control

## CN(Cc1cnc2nc(N)nc(N)c2n1)c1ccc(C(=O)N[C@@H](CCC(=O)O)C(=O)O)cc1
dose: 1.0 mg/kg/injection, vehicle: sodium bicarbonate
  T/C: 102 % of control
dose: 2.0 mg/kg/injection, vehicle: sodium bicarbonate
  T/C: 107 % of control and 88 % of control
dose: 4.0 mg/kg/injection, vehicle: sodium bicarbonate
  T/C: 96 % of control and 102 % of control

## NC(=O)c1ncn2c(=O)n(CCCl)nnc12
dose: 3.13 mg/kg/injection, vehicle: saline
  T/C: 113 % of control
dose: 6.25 mg/kg/injection, vehicle: saline
  T/C: 123 % of control
[9]
  T/C: 309 % of control

## CC(C)[C@]12O[C@H]1[C@@H]1O[C@]13[C@]1(O[C@H]1C[C@H]1C4=C(C(=O)OC4)[C@@H](O)C[C@@]13C)[C@@H]2O
dose: 25.0 micrograms/kg/injection, vehicle: saline + alcohol
  T/C: 98 % of control
dose: 50.0 micrograms/kg/injection, vehicle: saline + alcohol
  T/C: 110 % of control
dose: 100.0 micrograms/kg/injection, vehicle: saline + alcohol
  T/C: 102 % of control
dose: 200.0 micrograms/kg/injection, vehicle: saline + alcohol
  T/C: 88 % of control
dose: 400.0 micrograms/kg/injection, vehicle: saline + alcohol
  T/C: 107 % of control

## C/C=C1\C[C@@H]2C(OC)Nc3cc(O)c(OC)cc3C(=O)N2C1 (stereo not given in full)
dose: 0.03 mg/kg/injection, vehicle: saline
  T/C: 100 % of control
dose: 0.03 mg/kg/injection, vehicle: suspension in saline
  T/C: 92 % of control
dose: 0.06 mg/kg/injection, vehicle: saline
  T/C: 110 % of control
dose: 0.06 mg/kg/injection, vehicle: suspension in saline
  T/C: 96 % of control
dose: 0.12 mg/kg/injection, vehicle: saline
  T/C: 101 % of control
dose: 0.12 mg/kg/injection, vehicle: suspension in saline
  T/C: 97 % of control
dose: 0.25 mg/kg/injection, vehicle: saline
  T/C: 108 % of control
dose: 0.25 mg/kg/injection, vehicle: suspension in saline
  T/C: 104 % of control
[8]
  T/C: 104 % of control
dose: 0.5 mg/kg/injection, vehicle: suspension in saline
  T/C: 105 % of control

## BrC[P+](CBr)(CBr)CBr
[7]
  T/C: 93 % of control
[1]
  T/C: 102 % of control
[2]
  T/C: 97 % of control
[3]
  T/C: 97 % of control
[4]
  T/C: 89 % of control
[5]
  T/C: 95 % of control

## CN(C)c1ccc2c(NCCCCCCNc3ccnc4cc(N(C)C)ccc34)ccnc2c1
dose: 1.56 mg/kg/injection, vehicle: distilled water + Tween-80 + alcohol
  T/C: 97 % of control
dose: 3.12 mg/kg/injection, vehicle: distilled water + Tween-80 + alcohol
  T/C: 106 % of control
dose: 6.25 mg/kg/injection, vehicle: distilled water + Tween-80 + alcohol
  T/C: 111 % of control
dose: 12.5 mg/kg/injection, vehicle: distilled water + Tween-80 + alcohol
  T/C: 97 % of control
dose: 25.0 mg/kg/injection, vehicle: distilled water + Tween-80 + alcohol
  T/C: 116 % of control

## O=C(Nc1cccc(Cl)c1)ON1C(=O)C2C(C1=O)C1(Cl)C(Cl)C(Cl)C2(Cl)C1(Cl)Cl (stereo not given)
[1]
  T/C: 95 % of control
[2]
  T/C: 97 % of control
[3]
  T/C: 87 % of control

## O=C(O)C1Cc2nc[nH]c2CN1CO (stereo not given)
[7]
  T/C: 109 % of control
[1]
  T/C: 104 % of control
[2]
  T/C: 99 % of control
[3]
  T/C: 114 % of control
[4]
  T/C: 103 % of control
[5]
  T/C: 98 % of control

## O=C1[C@H]2CCC[C@H]2[C@H]2CCC[C@@H]12
[6]
  T/C: 95 % of control
[7]
  T/C: 104 % of control
[1]
  T/C: 98 % of control
[2]
  T/C: 95 % of control
[3]
  T/C: 91 % of control
[4]
  T/C: 102 % of control

## Cc1cc(=NO)cc(C)n1O
dose: 25.0 mg/kg/injection, vehicle: distilled water + alcohol
  T/C: 105 % of control
dose: 50.0 mg/kg/injection, vehicle: distilled water + alcohol
  T/C: 95 % of control and 102 % of control
dose: 100.0 mg/kg/injection, vehicle: distilled water + alcohol
  T/C: 96 % of control and 102 % of control
dose: 200.0 mg/kg/injection, vehicle: distilled water + alcohol
  T/C: 97 % of control and 104 % of control
dose: 400.0 mg/kg/injection, vehicle: distilled water + alcohol
  T/C: 97 % of control and 102 % of control

## Cn1cnc([N+](=O)[O-])c1SCC(=O)O
dose: 12.5 mg/kg/injection, vehicle: saline
  T/C: 100 % of control
[9]
  T/C: 107 % of control
dose: 50.0 mg/kg/injection, vehicle: saline
  T/C: 103 % of control
dose: 100.0 mg/kg/injection, vehicle: saline
  T/C: 93 % of control
dose: 200.0 mg/kg/injection, vehicle: saline
  T/C: 104 % of control
dose: 400.0 mg/kg/injection, vehicle: saline
  T/C: 96 % of control
